How the values were obtained:
[1] = molecular target: wild type PRC2 (wtPRC2) complex (Homo sapiens (Human), UniProt Q15910); test: EZH2 LC-MS assay (LC-Qualified); type: biochemical; conditions: (a) LC-Qualified assay
EZH2 = EZH2 (Homo sapiens (Human), UniProt Q15910); test: ELISA (H3K27 methylation) assay in G401 cell; type: cell-based; conditions: (b) ELISA Qualified assay, 48 h
Procedure, shortened: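 G401 cells were exposed for 48 h to 3-fold serial dilutions (8 or 12 points, top 20 μM final). Lysates were analysed by ELISA, with the H3K27 methylation signal normalized to total H3. Percent inhibition versus vehicle was fit to a dose-response curve for IC50.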

[2] = system: B cell lymphoma cell KARPAS422; test: Analysis of cell proliferation, KARPAS422; type: cell-based, human; conditions: Homo sapiens, KARPAS-422, 336 h; KARPAS422 after 14 days of treatment; read-out: antiproliferative activities IC50
Method: B cell lymphoma cell KARPAS422 was cultured using standard cell culture conditions in RPMI-1640 (Invitrogen, cat #11875) supplemented with 15% FBS (Invitrogen, cat #10099-141) in humidified incubator at 37° C., 5% CO2. To assess the effect of PRC2 inhibition on cell proliferation, exponentially growing cells were seeded at a density of 1×10^5 cells/mL in 12-well plate (Corning, cat #CLS3513). After cell seeding, a compound of the invention was added to the cell media (in concentrations ranging from 0 to 100 μM, 3× dilution series). Viable cell numbers were determined every 3-4 days for up to 14 days using Vi-CELL (Beckman Coulter). On days of cell counting, fresh growth media and compound were replenished and cells split back to a density of 1×10^5 cells/mL. Total cell number is expressed as split-adjusted viable cells per mL. The dose response curves and IC50 values were generated using Prism.

wild type PRC2 (wtPRC2) complex, sequence (Q15910 whole entry): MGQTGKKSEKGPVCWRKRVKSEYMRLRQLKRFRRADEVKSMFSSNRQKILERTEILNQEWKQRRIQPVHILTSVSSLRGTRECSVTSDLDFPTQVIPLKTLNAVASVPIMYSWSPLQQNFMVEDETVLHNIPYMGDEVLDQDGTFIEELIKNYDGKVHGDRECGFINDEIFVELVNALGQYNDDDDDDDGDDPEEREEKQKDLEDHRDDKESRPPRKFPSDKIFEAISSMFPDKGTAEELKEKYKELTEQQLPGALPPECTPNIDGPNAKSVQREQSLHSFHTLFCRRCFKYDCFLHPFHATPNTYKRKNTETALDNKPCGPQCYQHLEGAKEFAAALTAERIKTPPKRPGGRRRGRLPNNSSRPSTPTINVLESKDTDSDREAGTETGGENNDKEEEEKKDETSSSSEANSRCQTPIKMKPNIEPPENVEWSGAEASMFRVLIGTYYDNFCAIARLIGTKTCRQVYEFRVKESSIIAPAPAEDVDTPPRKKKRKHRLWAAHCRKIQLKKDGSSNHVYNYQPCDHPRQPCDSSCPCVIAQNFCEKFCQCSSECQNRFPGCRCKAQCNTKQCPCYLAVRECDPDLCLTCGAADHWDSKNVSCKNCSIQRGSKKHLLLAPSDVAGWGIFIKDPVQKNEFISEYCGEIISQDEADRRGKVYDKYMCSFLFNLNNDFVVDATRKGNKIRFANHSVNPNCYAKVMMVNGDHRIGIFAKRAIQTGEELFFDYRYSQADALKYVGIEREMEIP
wild type PRC2 (wtPRC2) complex, sequence (Q15022 whole entry partner): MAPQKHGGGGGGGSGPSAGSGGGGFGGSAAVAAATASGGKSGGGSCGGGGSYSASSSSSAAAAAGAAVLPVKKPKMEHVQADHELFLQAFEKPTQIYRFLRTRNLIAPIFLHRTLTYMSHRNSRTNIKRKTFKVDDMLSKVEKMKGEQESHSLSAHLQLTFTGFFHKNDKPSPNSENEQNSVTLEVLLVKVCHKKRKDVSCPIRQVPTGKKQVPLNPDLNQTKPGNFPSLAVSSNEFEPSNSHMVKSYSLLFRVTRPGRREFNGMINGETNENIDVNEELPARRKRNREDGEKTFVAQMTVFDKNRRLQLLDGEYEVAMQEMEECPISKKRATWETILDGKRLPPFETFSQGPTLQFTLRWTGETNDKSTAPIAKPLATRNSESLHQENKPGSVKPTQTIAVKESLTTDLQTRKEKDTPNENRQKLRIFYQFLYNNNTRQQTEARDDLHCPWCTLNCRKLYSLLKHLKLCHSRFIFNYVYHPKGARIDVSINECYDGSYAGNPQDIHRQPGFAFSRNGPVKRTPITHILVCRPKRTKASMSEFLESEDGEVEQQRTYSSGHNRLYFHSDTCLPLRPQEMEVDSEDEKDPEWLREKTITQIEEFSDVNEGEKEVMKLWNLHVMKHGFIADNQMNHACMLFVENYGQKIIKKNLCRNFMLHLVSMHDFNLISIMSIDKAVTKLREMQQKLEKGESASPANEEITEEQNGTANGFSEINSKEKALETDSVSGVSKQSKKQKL
wild type PRC2 (wtPRC2) complex, sequence (O75530 whole entry partner): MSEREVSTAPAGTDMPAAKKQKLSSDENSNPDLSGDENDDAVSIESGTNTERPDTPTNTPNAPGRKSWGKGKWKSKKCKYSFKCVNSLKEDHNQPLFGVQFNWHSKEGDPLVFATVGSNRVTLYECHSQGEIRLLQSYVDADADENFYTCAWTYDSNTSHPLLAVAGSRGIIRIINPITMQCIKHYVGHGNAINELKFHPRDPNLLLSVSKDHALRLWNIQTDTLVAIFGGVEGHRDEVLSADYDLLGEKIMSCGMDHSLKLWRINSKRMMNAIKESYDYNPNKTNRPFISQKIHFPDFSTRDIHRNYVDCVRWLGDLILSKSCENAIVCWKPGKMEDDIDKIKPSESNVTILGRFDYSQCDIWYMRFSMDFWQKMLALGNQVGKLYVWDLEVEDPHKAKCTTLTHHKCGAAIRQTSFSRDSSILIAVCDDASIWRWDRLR
wild type PRC2 (wtPRC2) complex, sequence (Q09028 whole entry partner): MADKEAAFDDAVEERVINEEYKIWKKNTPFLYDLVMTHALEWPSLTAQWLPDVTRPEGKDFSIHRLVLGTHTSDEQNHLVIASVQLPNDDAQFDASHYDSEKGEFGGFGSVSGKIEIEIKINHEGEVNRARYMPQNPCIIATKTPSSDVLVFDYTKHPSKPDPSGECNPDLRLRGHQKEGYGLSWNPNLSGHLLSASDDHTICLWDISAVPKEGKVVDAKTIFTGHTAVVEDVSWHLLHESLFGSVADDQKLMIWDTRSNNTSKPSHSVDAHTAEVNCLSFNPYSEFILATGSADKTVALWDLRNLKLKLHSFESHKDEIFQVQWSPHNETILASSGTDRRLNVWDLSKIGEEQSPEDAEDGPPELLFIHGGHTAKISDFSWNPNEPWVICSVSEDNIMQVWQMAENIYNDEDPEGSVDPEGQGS
wild type PRC2 (wtPRC2) complex, sequence (Q6ZN18 whole entry partner): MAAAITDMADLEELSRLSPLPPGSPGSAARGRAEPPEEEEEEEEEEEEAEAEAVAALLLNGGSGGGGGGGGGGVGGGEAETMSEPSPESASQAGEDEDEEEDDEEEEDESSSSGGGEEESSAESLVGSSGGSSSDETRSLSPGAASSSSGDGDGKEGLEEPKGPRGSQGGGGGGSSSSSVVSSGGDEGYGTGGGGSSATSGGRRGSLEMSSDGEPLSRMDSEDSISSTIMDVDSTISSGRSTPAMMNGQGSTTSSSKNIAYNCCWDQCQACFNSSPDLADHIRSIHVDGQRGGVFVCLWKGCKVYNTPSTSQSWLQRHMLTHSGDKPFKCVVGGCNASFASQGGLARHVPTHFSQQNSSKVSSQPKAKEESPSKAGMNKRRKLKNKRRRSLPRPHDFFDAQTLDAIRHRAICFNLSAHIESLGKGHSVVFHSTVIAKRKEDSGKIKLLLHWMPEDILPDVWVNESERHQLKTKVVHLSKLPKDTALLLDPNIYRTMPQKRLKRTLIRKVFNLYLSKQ
EZH2, sequence (Q15910 whole entry): as the sequence (Q15910 whole entry) above
EZH2, sequence (Q15022 whole entry partner): as the sequence (Q15022 whole entry partner) above
EZH2, sequence (O75530 whole entry partner): as the sequence (O75530 whole entry partner) above
EZH2, sequence (Q09028 whole entry partner): as the sequence (Q09028 whole entry partner) above

Compound | IC50 [1] [µM] | IC50 (EZH2) [µM] | IC50 [2] [nM]
O=C(Cc1ccc(NC[C@H]2CC[C@H](Nc3ccc4ccnc(Cl)c4n3)CC2)nc1)NC1COC1 [Compound C42, 2-(6-((((1,4-trans)-4-((8-chloro-1,7-naphthyridin-2-yl)amino)cyclohexyl)methyl)amino)pyridin-3-yl)-N-(oxetan-3-yl)acetamide] | 0.018 | 0.007 | 2
N#CCCN(C(=O)Cc1cnc(NC[C@H]2CC[C@H](Nc3ccc4ccnc(Cl)c4n3)CC2)nc1)C1COC1 [Compound C49, 2-(2-((((1,4-trans)-4-((8-chloro-1,7-naphthyridin-2-yl)amino)cyclohexyl)methyl)amino)pyrimidin-5-yl)-N-(2-cyanoethyl)-N-(oxetan-3-yl)acetamide] | 0.008 | 0.002 | 0.5
O=C(Cc1cnc(NC[C@H]2CC[C@H](Nc3ccc4ccnc(Cl)c4n3)CC2)nc1)N(CCO)C1COC1 [Compound C51, 2-(2-((((1,4-trans)-4-((8-chloro-1,7-naphthyridin-2-yl)amino)cyclohexyl)methyl)amino)pyrimidin-5-yl)-N-(2-hydroxyethyl)-N-(oxetan-3-yl)acetamide] | 0.038 | 0.018 | 8
CNc1nccc2ccc(N[C@H]3CC[C@H](CNc4ncc(C(N)=O)cn4)CC3)nc12 [Compound C61, 2-((((1,4-trans)-4-((8-(methylamino)-1,7-naphthyridin-2-yl)amino)cyclohexyl)methyl)amino)pyrimidine-5-carboxamide] | 0.049 | 0.032 | 41
O=C(NC1COC1)C(F)(F)c1cnc(NC[C@H]2CC[C@H](Nc3ccc4ccnc(Cl)c4n3)CC2)nc1 [Compound C77, 2-(2-((((1,4-trans)-4-((8-chloro-1,7-naphthyridin-2-yl)amino)cyclohexyl)methyl)amino)pyrimidin-5-yl)-2,2-difluoro-N-(oxetan-3-yl)acetamide] | 0.012 | 0.025 | 2
